Here are results for one compound from patent US9586947B2, “Imidazoline derivatives, preparation methods thereof, and their applications in medicine” (priority 2012, dated 2017).

Series [1] concerns PSA secretion of LNCaP-AR cells (AR-overexpressed LNCaP cells). The series is described as follows: Agonist activity on PSA secretion of LNCaP-AR cells. Format: cell-based. The following applies: 96 h, 4 days, OD value (test compounds)/OD value (blank control), blank control 100. Here is the method:
The following in vitro assay was performed to determine the activity of a high concentration of the compounds of the present invention for agitating the PSA secretion of LNCaP-AR cells (AR-overexpressed LNCaP cells, referred to as “LNCaP-AR cells” for short, constructed by a retroviral transfection method).
LNCaP-AR cells were subcultured in cell culture medium, resuspended in active carbon culture medium, and then inoculated into a 96-well plate (100 μl/well) with an inoculation density of 5×10^4 cells/well.
The test compounds were dissolved in DMSO (dimethyl sulfoxide) and prepared as a 10 mM stock solution. When used, the stock solution was diluted with DMSO into the two concentrations of 2 mM and 0.6 mM. Then, the diluted concentrations were each diluted with 20× active carbon culture medium, in order to ensure DMSO concentration in each culture system was 0.5%. Diluted test compounds remained to be tested.
10 μl of diluted test compounds were added to a 96-well plate and mixed gently. 10 μl of 0.5% DMSO diluted with active carbon culture medium was added to the blank control group.
After 4 days of incubation, 60 μl of cell cultural supernatants were collected, and the OD value of PSA per well was measured on a NOVO Star microplate reader using PSA kit (abnova, KA0208).
Agonist activity of the test compounds of the present invention on PSA secretion of LNCaP-AR cells was evaluated by the percentage of OD value (test compounds)/OD value (blank control). When the percentage value is greater than 100, the test compounds have agonist activity on PSA secretion of LNCaP-AR cells compared to the blank control. Conversely, when the percentage value is less than 100, the test compounds have no agonist activity on PSA secretion of LNCaP-AR cells compared to the blank control.

The subject of series [2] is PSA secretion of LNCaP cells. The series is described as follows: Inhibitory activity on PSA secretion of LNCaP cells. Format: cell-based. The conditions noted are these: Homo sapiens, 96 h; LNCaP cells, 1 nM testosterone medium, 4 days of incubation, PSA kit OD450; read-out: IC50 (inhibition of PSA secretion of LNCaP cells).
Series [3] concerns LNCaP cells. The series is described as follows: Proliferation inhibition of LNCaP cells (CCK-8). The following applies: Homo sapiens, 144 h, cultured 3 + 3 days, CCK-8, OD at 450 nm. The format is cell-based.
A short description of series [4]: Pharmacokinetics assay in rats, intragastric administration. Format: in vivo. The following applies: Sprague-Dawley, rat, plasma, po, male SD rats, 5 mg/kg. As for the experimental part:
Male rats were used as test animals. The compounds of Example 6, Example 9, Example 11, Example 13, Example 15, Example 16, Example 17, Example 44, and Example 45 were administered intragastrically to rats to determine the drug concentration in plasma at different time points by LC/MS/MS method. The pharmacokinetic behavior of the compounds of the present invention was studied and evaluated in rats.
27 healthy adult male Sprague-Dawley (SD) rats, purchased from SINO-BRITISH SIPPR/BK LAB. ANIMAL LTD., CO, Certificate No.: SCXK (Shanghai) 2008-0016, were divided into 9 groups, with 3 rats in each group.
The appropriate amount of test compounds was weighed and mixed with 0.5% CMC-Na to prepare a 0.5 mg/mL suspension by an ultrasonic method.
After an overnight fast, 27 SD rats were divided into 9 groups, and administered the compounds intragastrically at a dose of 5.0 mg/kg and an administration volume of 10 mL/kg.
Compounds of Example 6, Example 9, Example 11, Example 13, Example 15, Example 16, Example 17, Example 44, and Example 45 were administered intragastrically to rats. Blood samples (0.1 mL) were taken from the orbital sinus before administration, and at 0.5 h, 1.0 h, 2.0 h, 3.0 h, 4.0 h, 6.0 h, 8.0 h, 11.0 h, and 24.0 h after administration, stored in heparinized tubes, and centrifuged for 5 minutes at 3,500 rpm to separate blood plasma. The plasma samples were stored at −20° C. The rats were fed 2 hours after administration.
The concentration of the different test compounds in rat plasma after intragastrically administering the test compounds was determined by LC-MS/MS method. The linearity of the method is 1.00-2000 ng/ml. Plasma samples were analyzed after protein precipitation was accomplished by the addition of methanol.

As a reminder, the IC50 is the midpoint of a concentration-inhibition curve. By AUC is commonly meant concentration integrated over time. One may read the half-life as the time in which the quantity being followed falls by half. For orientation: MRT means a mean duration of stay, worked out from the concentration-time curve. For orientation: Cmax means the highest concentration seen after dosing. Regarding `CC1(C)C(=O)N(c2ccc(C#N)c(C(F)(F)F)c2)C(=S)N1c1ccc(OC[C@@H](O)CO)cc1` [Example 44, (S)-4-(3-(4-(2,3-Dihydroxypropoxy)phenyl)-4,4-dimethyl-5-oxo-2-thioxoimidazolidin-1-yl)-2-(trifluoromethyl)benzonitrile], the activity at 3 µM in series [1] (3 μM) came out at 77.2%. The compound further had an activity at 10 µM in series [1] (10 μM) of 92.7%. For the same compound, the figures for the IC50 in series [2] and in series [3] were 22 nM and 33 nM, respectively. For the same compound, the Vd/F in series [4] (read-out: Apparent Distribution Volume Vz/F) came to 2.45 ± 0.376 L/kg. Further, the AUC in series [4] (read-out: Area Under Curve AUC) worked out at 19300 ± 4170 ng·h/mL. Further, the CL/F in series [4] (read-out: Clearance CLz/F) is 4.47 ± 1.08 mL/min/kg. Moreover, in series [4] (read-out: Half-Life T½ (converted)), the half-life was 6.41 ± 0.6 h. The MRT in series [4] (read-out: Mean Residence Time MRT) stood at 10.5 ± 1.3 h. Moreover, the Cmax in series [4] (read-out: Plasma Conc. Cmax) turned out to be 1300 ± 275 ng/mL.
